The test deals with T1, human IL-17AA (Homo sapiens, UniProt Q16552).
T1 construct: host or cells: HEK (human embryonic kidney) cells
T1 sequence (Q16552 24-155): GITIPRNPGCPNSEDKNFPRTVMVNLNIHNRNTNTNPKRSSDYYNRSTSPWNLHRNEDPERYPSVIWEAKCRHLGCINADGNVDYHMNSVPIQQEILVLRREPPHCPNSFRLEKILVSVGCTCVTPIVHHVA
The test can be described thus: IL-8 release assay in human epithelial keratinocytes adult (HEKa). It counts as cell-based. The settings on record: HEKa cells, 3 ng/mL HEK-human IL-17AA + 10 ng/mL human TNFalpha; read-out: Rel EC50 IL-8 release assay. Put shortly: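 IL-8 release, quantified by HTRF and normalized to controls, reports IL-17 signaling in HEKa cells treated with compound plus final 3 ng/mL IL-17AA (HEK-derived) and 10 ng/mL TNF-alpha for 68-72 h; TNF-alpha-only wells set 100% inhibition. Four-parameter logistic fits (r^2>0.9) give relative IC50 and Emax; PrestoBlue flags cytotoxicity.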

Each structure is given as a SMILES string. pEC50: −log10 of the molar value.

Consider `Cn1cnnc1-c1ccc(NC(=O)[C@@H](NC(=O)c2ccnn2C)C(c2ccccc2)c2ccccc2)cc1` [Example 354, N-[(1S)-1-benzhydryl-2-[4-(4-methyl-1,2,4-triazol-3-yl)anilino]-2-oxo-ethyl]-2-methyl-pyrazole-3-carboxamide], for which the pEC50 (commonly the negative decadic logarithm of the EC50, by convention in mol/L) was less than 6.00. Regarding `Cc1n[nH]c(C)c1-c1ccc(NC(=O)[C@@H](NC(=O)c2ccnn2C)C2CC23CCC3)cc1` (single isomer, unassigned) [Example 223], the pEC50 was less than 6.00. `CCC(F)(F)C(=O)N[C@H](C(=O)Nc1ccc(-c2c(C)n[nH]c2C)cc1)C1CCCCC1` [Example 56, N-[(1S)-1-cyclohexyl-2-[4-(3,5-dimethyl-1H-pyrazol-4-yl)anilino]-2-oxo-ethyl]-2,2-difluoro-butanamide]: the pEC50 was 6.00 to 7.00.

Consider `Cn1cncc1-c1ccc(NC(=O)[C@H](CC2CCCCC2)NC(=O)OC(C)(C)C)cc1` [Example 93, tert-butyl N-[(1S)-1-(cyclohexylmethyl)-2-[4-(3-methylimidazol-4-yl)anilino]-2-oxo-ethyl]carbamate], for which the pEC50 is less than 6.00. Then `Cc1ncn(C)c1-c1ccc(NC(=O)[C@@H](NC(=O)c2ccnn2C)C2CCCCC2)cc1` [Example 337, N-[(1S)-1-cyclohexyl-2-[4-(3,5-dimethylimidazol-4-yl)anilino]-2-oxo-ethyl]-2-methyl-pyrazole-3-carboxamide], with 6.00 to 7.00; and `CCc1n[nH]c(CC)c1-c1ccc(NC(=O)[C@@H](NC(=O)c2ccnn2[C@@H](C)CO)C(C2CC2)C2CC2)cc1` [Example 394, N-[(1S)-1-(dicyclopropylmethyl)-2-[4-(3,5-diethyl-1H-pyrazol-4-yl)anilino]-2-oxo-ethyl]-2-[(1S)-2-hydroxy-1-methyl-ethyl]pyrazole-3-carboxamide], with more than 7.00.

`Cc1n[nH]c(C)c1-c1ccc(NC(=O)[C@@H](NC(=O)c2ccnn2C)C(C)C2CCCC2)cc1` (mixture of isomers) [Example 221]: the pEC50 is 6.00 to 7.00.

As to `Cc1n[nH]c(C)c1-c1ccc(NC(=O)[C@@H](NC(=O)c2ccnn2C(F)F)C2CCCCC2)cc1` [Example 28, N-[(1S)-1-cyclohexyl-2-[4-(3,5-dimethyl-1H-pyrazol-4-yl)anilino]-2-oxo-ethyl]-2-(difluoromethyl)pyrazole-3-carboxamide], the pEC50 is 6.00 to 7.00. `Cc1n[nH]c(C)c1-c1ccc(NC(=O)C(NC(=O)c2ccnn2C)[C@@H](C)c2ccccc2)cc1` (single isomer, unassigned) [Example 234]: the negative-log EC50 (pEC50) was 6.00 to 7.00.

For `Cc1n[nH]c(C)c1-c1ccc(NC(=O)C(NC(=O)c2ccnn2C(C)C)C(C2CCC2)C2CCC2)cc1` (racemic) [Example 38, N-[1-[di(cyclobutyl)methyl]-2-[4-(3,5-dimethyl-1H-pyrazol-4-yl)anilino]-2-oxo-ethyl]-2-isopropyl-pyrazole-3-carboxamide], the pEC50 is more than 7.00.

Take `Cc1n[nH]c(C)c1-c1ccc(NC(=O)[C@@H](NC(=O)C2CCC2)C(C2CC2)C2CC2)cc1` [Example 169, N-[(1S)-1-(dicyclopropylmethyl)-2-[4-(3,5-dimethyl-1H-pyrazol-4-yl)anilino]-2-oxo-ethyl]cyclobutane carboxamide]: the pEC50 was less than 6.00.

`Cc1n[nH]c(C)c1-c1ccc(NC(=O)[C@@H](NC(=O)OC2CC2)C2CCCCCC2)cc1O` [Example 425, cyclopropyl N-[(1S)-1-cycloheptyl-2-[4-(3,5-dimethyl-1H-pyrazol-4-yl)-3-hydroxy-anilino]-2-oxo-ethyl]carbamate]: the pEC50 is 6.00 to 7.00. With `Cn1cncc1-c1ccc(NC(=O)[C@@H](NC(=O)c2ccnn2C)[C@H]2CCc3ccccc32)cc1` [Example 377, N-[(1S)-1-[(1S)-indan-1-yl]-2-[4-(3-methylimidazol-4-yl)anilino]-2-oxo-ethyl]-2-methyl-pyrazole-3-carboxamide], the pEC50 was 6.00 to 7.00. In the case of `Cc1n[nH]c(C)c1-c1ccc(NC(=O)[C@@H](NC(=O)c2ccnn2C)[C@H]2CCCc3ccccc32)cc1` [Example 81, N-[(1S)-2-[4-(3,5-dimethyl-1H-pyrazol-4-yl)anilino]-2-oxo-1-[(1S)-tetralin-1-yl]ethyl]-2-methyl-pyrazole-3-carboxamide] it was more than 7.00; in that of `Cc1n[nH]c(C)c1-c1ccc(NC(=O)C(NC(=O)c2ccnn2C)C(c2ccccc2)C2CC2)cc1` (single isomer, unassigned) [Example 301, N-[1-[cyclopropyl(phenyl)methyl]-2-[4-(3,5-dimethyl-1H-pyrazol-4-yl)anilino]-2-oxo-ethyl]-2-methyl-pyrazole-3-carboxamide], 6.00 to 7.00. Consider `Cc1n[nH]c(C)c1-c1ccc(NC(=O)C(NC(=O)c2ccnn2C)C(c2ccccc2)C2CC2)cc1` (single isomer, unassigned) [Example 302, N-[1-[cyclopropyl(phenyl)methyl]-2-[4-(3,5-dimethyl-1H-pyrazol-4-yl)anilino]-2-oxo-ethyl]-2-methyl-pyrazole-3-carboxamide], for which the pEC50 is less than 6.00. On to `Cc1n[nH]c(C(C)O)c1-c1ccc(NC(=O)[C@@H](NC(=O)c2ccnn2C)C2CCCCC2)cc1` (stereo partly drawn) [Example 440, N-[(1S)-1-Cyclohexyl-2-[4-[5-(1-hydroxyethyl)-3-methyl-1H-pyrazol-4-yl]anilino]-2-oxo-ethyl]-2-methyl-pyrazole-3-carboxamide], for which the negative logarithm of the EC50 (pEC50) is 6.00 to 7.00. As for `Cc1n[nH]c(C)c1-c1ccc(NC(=O)[C@H](Cc2ccccc2Cl)NC(=O)c2ccnn2C(C)C)cc1` [Example 24], the pEC50 was 6.00 to 7.00. Consider `Cc1ncn(C)c1-c1ccc(NC(=O)[C@@H](NC(=O)c2ccnn2C(C)C)C(C2CC2)C2CC2)cc1` [Example 403, N-[(1S)-1-(dicyclopropylmethyl)-2-[4-(3,5-dimethylimidazol-4-yl)anilino]-2-oxo-ethyl]-2-isopropyl-pyrazole-3-carboxamide], for which the pEC50 was 6.00 to 7.00. For the molecule `Cc1n[nH]c(C)c1-c1ccc(NC(=O)[C@@H](NC(=O)c2ccnn2CCC(F)(F)F)C(C2CC2)C2CC2)cc1` [Example 130, N-[(1S)-1-(dicyclopropylmethyl)-2-[4-(3,5-dimethyl-1H-pyrazol-4-yl)anilino]-2-oxo-ethyl]-2-(3,3,3-trifluoropropyl)pyrazole-3-carboxamide], the pEC50 was more than 7.00. On to `Cc1n[nH]c(C)c1-c1ccc(NC(=O)C(NC(=O)c2ccnn2C)C(c2ccccc2)C2CC2)cc1` (single isomer, unassigned) [Example 303, N-[1-[cyclopropyl(phenyl)methyl]-2-[4-(3,5-dimethyl-1H-pyrazol-4-yl)anilino]-2-oxo-ethyl]-2-methyl-pyrazole-3-carboxamide], for which the negative-log EC50 (pEC50) is 6.00 to 7.00. For the molecule `Cc1n[nH]c(C)c1-c1ccc(NC(=O)[C@@H](NC(=O)N2CCCC2CCO)C2CCCCC2)cc1` (single isomer, unassigned) [Example 467], the pEC50 is less than 6.00. Take `Cc1n[nH]c(C)c1-c1ccc(NC(=O)[C@@H](NC(=O)c2conc2C(C)C)C2CCC3(CC2)CC3)cc1` [Example 263, N-[(1S)-2-[4-(3,5-dimethyl-1H-pyrazol-4-yl)anilino]-2-oxo-1-spiro[2.5]octan-6-yl-ethyl]-3-isopropyl-isoxazole-4-carboxamidet]: the pEC50 was 6.00 to 7.00. Regarding `Cc1n[nH]c(CO)c1-c1ccc(NC(=O)[C@@H](NC(=O)c2ccnn2C)C2CCCCCC2)cc1` [Example 446, N-[(1S)-1-cycloheptyl-2-[4-[5-(hydroxymethyl)-3-methyl-1H-pyrazol-4-yl]anilino]-2-oxo-ethyl]-2-methyl-pyrazole-3-carboxamide], the pEC50 was more than 7.00.

As for `Cc1n[nH]c(C)c1-c1ccc(NC(=O)[C@@H](NC(=O)c2ccnn2CC2CC2)C(C2CC2)C2CC2)cc1` [Example 129, 2-(cyclopropylmethyl)-N-[(1S)-1-(dicyclopropylmethyl)-2-[4-(3,5-dimethyl-1H-pyrazol-4-yl)anilino]-2-oxo-ethyl]pyrazole-3-carboxamide], the pEC50 is more than 7.00. As to `Cc1n[nH]c(C)c1-c1ccc(NC(=O)[C@@H](NC(=O)c2csc3ccccc23)C2CCCCC2)cc1` [Example 74, N-[(1S)-1-cyclohexyl-2-[4-(3,5-dimethyl-1H-pyrazol-4-yl)anilino]-2-oxo-ethyl]benzothiophene-3-carboxamide], the pEC50 was 6.00 to 7.00. Turning to `Cc1n[nH]c(C)c1-c1ccc(NC(=O)[C@@H](NC(=O)c2ccnn2C)[C@H]2CCCCC(F)(F)C2)cc1` [Example 7, N-[(1S)-1-[(1S)-3,3-difluorocycloheptyl]-2-[4-(3,5-dimethyl-1H-pyrazol-4-yl)anilino]-2-oxo-ethyl]-2-methyl-pyrazole-3-carboxamide], the pEC50 is 6.00 to 7.00. As to `Cc1n[nH]c(C)c1-c1ccc(NC(=O)[C@@H](NC(=O)c2ccnn2C)C(c2ccccc2)c2ccccc2)cc1O` [Example 411, N-[(1S)-1-benzhydryl-2-[4-(3,5-dimethyl-1H-pyrazol-4-yl)-3-hydroxy-anilino]-2-oxo-ethyl]-2-methyl-pyrazole-3-carboxamide], the pEC50 is 6.00 to 7.00.

On to `Cc1n[nH]c(C)c1-c1ccc(NC(=O)[C@@H](NC(=O)c2ccnn2C(C)CCO)C(C2CC2)C2CC2)cc1` (single isomer, unassigned) [Example 226], for which the pEC50 is more than 7.00. Turning to `Cc1n[nH]c(C)c1-c1ccc(NC(=O)[C@@H](NC(=O)c2ccnn2C)[C@@H]2CCc3ccc(Br)cc32)cc1` [Example 4, N-[(1S)-1-[(1R)-6-bromoindan-1-yl]-2[4-(3,5-dimethyl-1H-pyrazol-4-yl)anilino]-2-oxo-ethyl]-2-methyl-pyrazole-3-carboxamide], the pEC50 was 6.00 to 7.00.

These data come from patent US11377425B1, “Small molecule modulators of IL-17” (LEO Pharma A/S, priority 2018, dated 2022).
